Test results from patent US11339130B1 (Blade Therapeutics, Inc., priority 2016, dated 2022).

Columns and labels:
Format in all cases: biochemical
[1] = biological target: T1, Human Calpain 1/NS1 (Homo sapiens, UniProt P07384); assay: Calpain inhibition continuous fluorescence (FRET) assay, Human Calpain 1/NS1; details: Column A; read-out: Human Calpain 1/NS1 IC50
T1 sequence (P07384 1-714): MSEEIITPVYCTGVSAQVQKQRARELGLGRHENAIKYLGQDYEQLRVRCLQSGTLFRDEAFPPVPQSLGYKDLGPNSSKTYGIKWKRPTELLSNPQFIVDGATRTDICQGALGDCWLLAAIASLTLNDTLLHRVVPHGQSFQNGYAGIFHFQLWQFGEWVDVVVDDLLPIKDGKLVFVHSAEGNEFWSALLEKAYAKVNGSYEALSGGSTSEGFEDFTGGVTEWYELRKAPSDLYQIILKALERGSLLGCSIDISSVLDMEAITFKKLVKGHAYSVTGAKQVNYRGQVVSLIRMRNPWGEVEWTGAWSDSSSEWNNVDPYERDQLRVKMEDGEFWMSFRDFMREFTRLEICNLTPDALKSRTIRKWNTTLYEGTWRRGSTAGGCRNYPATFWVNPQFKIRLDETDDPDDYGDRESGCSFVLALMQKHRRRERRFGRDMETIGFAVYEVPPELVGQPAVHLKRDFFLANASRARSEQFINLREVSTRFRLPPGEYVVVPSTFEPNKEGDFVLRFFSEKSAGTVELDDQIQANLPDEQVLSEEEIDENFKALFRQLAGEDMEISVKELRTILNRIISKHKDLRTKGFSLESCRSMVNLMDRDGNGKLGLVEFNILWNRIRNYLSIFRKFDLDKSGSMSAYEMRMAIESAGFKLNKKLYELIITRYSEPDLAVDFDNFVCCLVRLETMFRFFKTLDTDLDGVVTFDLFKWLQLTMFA
T1 sequence (P04632 1-268 partner): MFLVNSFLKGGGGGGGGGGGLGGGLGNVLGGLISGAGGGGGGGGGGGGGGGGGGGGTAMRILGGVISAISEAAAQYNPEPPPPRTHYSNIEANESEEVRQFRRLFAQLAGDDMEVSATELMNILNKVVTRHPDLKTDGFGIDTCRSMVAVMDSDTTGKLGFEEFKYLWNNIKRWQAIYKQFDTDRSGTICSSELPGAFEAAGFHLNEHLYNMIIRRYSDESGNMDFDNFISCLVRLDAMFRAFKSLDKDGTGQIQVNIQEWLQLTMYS
In short: (§1)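 Inhibitors were preincubated with calpain in 50 mM Tris pH 7.5, 100 mM NaCl, 1 mM DTT at 25C. Reactions were started with 5-FAM/QXL 520 FRET peptide substrate plus CaCl2 and read at 490/520 nm for 10 min. IC50s came from 4-parameter fits of slope rates (1-5 min).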

[2] = biological target: T2, Human Calpain 2/NS1 (Homo sapiens, UniProt P17655); assay: Calpain inhibition continuous fluorescence (FRET) assay, Human Calpain 2/NS1; details: Column B; read-out: Human Calpain 2/NS1 IC50
T2 sequence (P17655 1-700): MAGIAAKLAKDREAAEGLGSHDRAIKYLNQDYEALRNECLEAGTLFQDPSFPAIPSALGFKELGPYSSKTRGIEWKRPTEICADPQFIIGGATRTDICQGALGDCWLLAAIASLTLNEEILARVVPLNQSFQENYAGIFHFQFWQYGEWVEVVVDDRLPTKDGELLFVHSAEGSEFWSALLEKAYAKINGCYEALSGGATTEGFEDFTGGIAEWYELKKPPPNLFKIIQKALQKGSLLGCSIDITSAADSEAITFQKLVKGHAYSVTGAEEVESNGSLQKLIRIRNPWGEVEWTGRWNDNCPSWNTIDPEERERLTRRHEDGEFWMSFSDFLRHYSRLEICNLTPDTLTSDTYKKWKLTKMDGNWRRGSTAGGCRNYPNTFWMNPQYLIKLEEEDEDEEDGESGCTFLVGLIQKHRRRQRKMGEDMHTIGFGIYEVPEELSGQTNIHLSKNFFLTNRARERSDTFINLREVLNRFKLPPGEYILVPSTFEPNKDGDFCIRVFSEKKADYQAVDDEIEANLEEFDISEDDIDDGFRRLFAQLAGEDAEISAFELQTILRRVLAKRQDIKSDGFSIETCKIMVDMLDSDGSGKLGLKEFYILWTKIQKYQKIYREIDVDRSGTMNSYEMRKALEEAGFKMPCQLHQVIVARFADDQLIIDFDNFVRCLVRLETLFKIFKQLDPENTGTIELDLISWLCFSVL
T2 sequence (P04632 1-268 partner): T1 sequence (P04632 1-268 partner)
In short: as §1

[3] = biological target: T3, Human Calpain 9/NS1 (Homo sapiens, UniProt O14815); assay: Calpain inhibition continuous fluorescence (FRET) assay, Human Calpain 9/NS1; details: Column C; read-out: Human Calpain 9/NS1 IC50
T3 sequence (O14815 1-690): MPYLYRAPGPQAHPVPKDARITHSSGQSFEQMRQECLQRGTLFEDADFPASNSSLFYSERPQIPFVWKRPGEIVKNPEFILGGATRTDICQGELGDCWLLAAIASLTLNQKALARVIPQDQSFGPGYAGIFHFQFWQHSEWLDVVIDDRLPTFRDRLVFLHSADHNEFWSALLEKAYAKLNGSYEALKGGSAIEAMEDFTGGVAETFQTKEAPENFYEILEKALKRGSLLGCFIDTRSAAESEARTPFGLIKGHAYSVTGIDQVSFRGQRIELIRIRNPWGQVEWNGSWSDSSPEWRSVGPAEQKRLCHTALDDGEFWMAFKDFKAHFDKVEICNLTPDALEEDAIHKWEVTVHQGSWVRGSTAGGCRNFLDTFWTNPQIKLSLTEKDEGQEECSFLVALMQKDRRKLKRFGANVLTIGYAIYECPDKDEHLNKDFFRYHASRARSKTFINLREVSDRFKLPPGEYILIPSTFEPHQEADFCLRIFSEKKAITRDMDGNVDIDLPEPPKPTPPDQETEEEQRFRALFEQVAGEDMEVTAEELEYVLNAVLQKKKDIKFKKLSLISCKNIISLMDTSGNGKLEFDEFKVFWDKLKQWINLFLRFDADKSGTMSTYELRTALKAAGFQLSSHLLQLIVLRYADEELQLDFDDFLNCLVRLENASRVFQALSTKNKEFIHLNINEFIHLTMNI
T3 sequence (P04632 1-268 partner): T1 sequence (P04632 1-268 partner)
In short: as §1

SMILES | IC50 [1] [µM] | IC50 [2] [µM] | IC50 [3] [µM]
Cc1cc(C(F)(F)F)cc(-n2nc(C)cc2C(=O)N[C@@H](Cc2ccccc2)C(=O)C(N)=O)n1 [Compound 234, (S)—N-(4-amino-3,4-dioxo-1-phenylbutan-2-yl)-3-methyl-1-(6-methyl-4-(trifluoromethyl)pyridin-2-yl)-1H-pyrazole-5-carboxamide] | < 3 | < 3 | < 3
Cc1cc(-n2nc(C)cc2C(=O)N[C@@H](Cc2ccccc2)C(=O)C(N)=O)nc(C)n1 [Compound 235, (S)—N-(4-amino-3,4-dioxo-1-phenylbutan-2-yl)-1-(2,6-dimethylpyrimidin-4-yl)-3-methyl-1H-pyrazole-5-carboxamide] | < 3 | < 3 | < 3
Cn1ncc(-c2ccccc2)c1C(=O)N[C@@H](Cc1ccccc1)C(=O)C(N)=O [Compound 240] | < 3 | < 3 | < 3
Cn1cc(-c2ccccc2)c(C(=O)N[C@@H](Cc2ccccc2)C(=O)C(N)=O)n1 [Compound 241, (S)—N-(4-amino-3,4-dioxo-1-phenylbutan-2-yl)-1-methyl-4-phenyl-1H-pyrazole-3-carboxamide] | < 3 | < 3 | < 3
Cc1noc(-c2ccccc2)c1C(=O)N[C@@H](Cc1ccccc1)C(=O)C(=O)NCc1ccc(OC(F)(F)F)cc1 [Compound 247, (S)—N-(3,4-dioxo-1-phenyl-4-((4-(trifluoromethoxy)benzyl)amino)butan-2-yl)-3-methyl-5-phenylisoxazole-4-carboxamide] | 3 to 10 | 3 to 10 | 3 to 10
Cc1cc(C(=O)N[C@@H](Cc2ccccc2)C(=O)C(N)=O)nn1-c1nc2ccccc2o1 [Compound 256, (S)—N-(4-amino-3,4-dioxo-1-phenylbutan-2-yl)-1-(benzo[d]oxazol-2-yl)-5-methyl-1H-pyrazole-3-carboxamide] | > 10 | > 10 | < 3
NC(=O)C(=O)[C@H](Cc1ccccc1)NC(=O)c1c(F)cnn1-c1ccccc1 [Compound 258, (S)—N-(4-amino-3,4-dioxo-1-phenylbutan-2-yl)-4-fluoro-1-phenyl-1H-pyrazole-5-carboxamide] | < 3 | < 3 | < 3
Cn1nnc(C(=O)N[C@@H](Cc2ccccc2)C(=O)C(N)=O)c1-c1ccccc1 [Compound 260, (S)—N-(4-amino-3,4-dioxo-1-phenylbutan-2-yl)-1-methyl-5-phenyl-1H-1,2,3-triazole-4-carboxamide] | < 3 | < 3 | < 3
Cn1nnc(-c2ccccc2)c1C(=O)N[C@@H](Cc1ccccc1)C(=O)C(N)=O [Compound 261, (S)—N-(4-amino-3,4-dioxo-1-phenylbutan-2-yl)-1-methyl-4-phenyl-1H-1,2,3-triazole-5-carboxamide] | < 3 | < 3 | < 3
NC(=O)C(=O)[C@H](Cc1ccccc1)NC(=O)c1nn[nH]c1-c1ccccc1 [Compound 262, (S)—N-(4-amino-3,4-dioxo-1-phenylbutan-2-yl)-5-phenyl-1H-1,2,3-triazole-4-carboxamide] | 3 to 10 | 3 to 10 | < 3
NC(=O)C(=O)[C@H](Cc1ccccc1)NC(=O)c1cnnn1-c1ccccc1 [Compound 263, (S)—N-(4-amino-3,4-dioxo-1-phenylbutan-2-yl)-1-phenyl-1H-1,2,3-triazole-5-carboxamide] | < 3 | < 3 | < 3
Cc1cc(C(=O)N[C@@H](Cc2ccccc2)C(=O)C(N)=O)nn1-c1nc2ccccc2[nH]1 [Compound 264, (S)—N-(4-amino-3,4-dioxo-1-phenylbutan-2-yl)-1-(1H-benzo[d]imidazol-2-yl)-5-methyl-1H-pyrazole-3-carboxamide] | 3 to 10 | 3 to 10 | > 10
Cn1cnc(C(=O)N[C@@H](Cc2ccccc2)C(=O)C(N)=O)c1-c1ccccc1 [Compound 269, (S)—N-(4-amino-3,4-dioxo-1-phenylbutan-2-yl)-1-methyl-5-phenyl-1H-imidazole-4-carboxamide] | 3 to 10 | 3 to 10 | < 3
NC(=O)C(=O)[C@H](Cc1ccccc1)NC(=O)c1ccsc1-c1ccccc1 [Compound 270, (S)—N-(4-amino-3,4-dioxo-1-phenylbutan-2-yl)-2-phenylthiophene-3-carboxamide] | < 3 | < 3 | < 3
N#Cc1cc(C(=O)N[C@@H](Cc2ccccc2)C(=O)C(N)=O)n(-c2ccccc2)n1 [Compound 272, (S)—N-(4-amino-3,4-dioxo-1-phenylbutan-2-yl)-3-cyano-1-phenyl-1H-pyrazole-5-carboxamide] | > 10 | 3 to 10 | 3 to 10
N#Cc1cc(C(=O)N[C@@H](Cc2ccccc2)C(=O)C(N)=O)nn1-c1ccccc1 [Compound 273, (S)—N-(4-amino-3,4-dioxo-1-phenylbutan-2-yl)-5-cyano-1-phenyl-1H-pyrazole-3-carboxamide] | > 10 | < 3 | < 3
Cn1nc(Br)c(C(=O)NC(Cc2ccccc2)C(=O)C(N)=O)c1Cl (stereo not drawn) [Compound 274, N-(4-amino-3,4-dioxo-1-phenylbutan-2-yl)-3-bromo-5-chloro-1-methyl-1H-pyrazole-4-carboxamide] | < 3 | < 3 | < 3
NC(=O)C(=O)C(Cc1ccccc1)NC(=O)c1c(Cl)cnn1-c1ccccc1 (stereo not drawn) [Compound 280, N-(4-amino-3,4-dioxo-1-phenylbutan-2-yl)-4-chloro-1-phenyl-1H-pyrazole-5-carboxamide] | < 3 | < 3 | < 3
NC(=O)C(=O)C(Cc1ccccc1)NC(=O)c1ccnn1Cc1ccccc1 (stereo not drawn) [Compound 283, N-(4-amino-3,4-dioxo-1-phenylbutan-2-yl)-1-benzyl-1H-pyrazole-5-carboxamide] | < 3 | < 3 | < 3
